Each structure is given as a SMILES string.

The test system of test [1] is MCF-7 human breast cancer cells. The test can be described thus: Cytotoxicity assay against MCF-7 cells. In kind it is cell-based.
Test [2] has as its system HT-29 human colon cancer cells. Briefly: Cytotoxicity assay against HT-29 cells. In kind it is cell-based.
A further test deals with HT-29 cells. The test can be described thus: Mitochondrial transmembrane potential. In kind it is cell-based, human. Conditions: 2 h treatment, JC-1 dye.

Take `CC(=O)O[C@@H]([C@H]1C[C@@H]1C(=O)C(C)OC(=O)/C=C/c1ccc(O)cc1)[C@H]1CC=CC(=O)O1` (stereo partly drawn) [Compound 1, Brevipolide A]: the “ED50 against MCF-7 cells” value in test [1] is above 10 µM. For the same compound, the “ED50 against HT-29 cells” value in test [2] amounted to 5.8 µM. With `CC(=O)O[C@@H]([C@H]1C[C@@H]1C(=O)C(C)OC(=O)/C=C\c1ccc(O)cc1)[C@H]1CC=CC(=O)O1` (stereo partly drawn) [Compound 2, Brevipolide B], the “ED50 against MCF-7 cells” value in test [1] was determined as 6.1 µM. Further, the “ED50 against HT-29 cells” value in test [2] turned out to be 6.1 µM. For `CC(OC(=O)/C=C/c1ccc(O)c(O)c1)C(=O)[C@H]1C[C@@H]1[C@H](O)[C@H]1CC=CC(=O)O1` (stereo partly drawn) [Compound 3, Brevipolide C], the “ED50 in mitochondrial transmembrane potential assay” value with HT-29 cells amounted to 0.0085 µM. On to `CC(OC(=O)/C=C\c1ccc(O)cc1)C(=O)[C@H]1C[C@@H]1[C@H](O)[C@H]1CC=CC(=O)O1` (stereo partly drawn) [Compound 6, Brevipolide F], for which the “ED50 against MCF-7 cells” value in test [1] is 6.7 µM. The “ED50 against HT-29 cells” value in test [2] was 7.5 µM.

Consider `COc1ccc(-c2oc3cc(OC)c(O)c(O)c3c(=O)c2OC)cc1O` [Compound 8, 5,6,3′-trihydroxy-3,7,4′-trimethoxyflavone], for which the “ED50 against HT-29 cells” value in test [2] turned out to be 3.6 µM. Also, in the test with HT-29 cells, the “ED50 in mitochondrial transmembrane potential assay” value turned out to be 0.31 µM.
